{"source": "patent US20080299234A1", "about": "“Medication Comprising Plant Extracts as a Lipase Inhibitor” (priority 2005, published 2008)", "key": {"[1]": {"tested_on": "postprandial triglyceride values in the plasma of rats", "test": "lipid stress test in rats with Triton WR-1339 (postprandial rise in plasma triglyceride values)", "assay_type": "in vivo", "method": "For further examination and verification of the results determined in vitro, the triglyceride-reducing effect was tested in an animal experiment.\nTo this end a lipid stress test was carried out in rats with Triton WR-1339 to inhibit the triglyceride elimination from the blood and the postprandial rise in plasma triglyceride values over four hours The following test substances were used:\nOrlistat as positive control.\nAs result, the rise in postprandial triglyceride values in the plasma of rats after administration of the test substances was recorded. […] They include linseed, sunflower, marigold and propolis."}, "triglyceride": {"tested_on": "triglyceride", "conditions": "Tsujita et al. 1996; Kagawa et al. 1996, 1998; cited from earlier work"}, "pancreatic lipase": {"target": "T1, pancreatic lipase (Homo sapiens, UniProt P16233)", "T1 sequence (P16233 17-465)": "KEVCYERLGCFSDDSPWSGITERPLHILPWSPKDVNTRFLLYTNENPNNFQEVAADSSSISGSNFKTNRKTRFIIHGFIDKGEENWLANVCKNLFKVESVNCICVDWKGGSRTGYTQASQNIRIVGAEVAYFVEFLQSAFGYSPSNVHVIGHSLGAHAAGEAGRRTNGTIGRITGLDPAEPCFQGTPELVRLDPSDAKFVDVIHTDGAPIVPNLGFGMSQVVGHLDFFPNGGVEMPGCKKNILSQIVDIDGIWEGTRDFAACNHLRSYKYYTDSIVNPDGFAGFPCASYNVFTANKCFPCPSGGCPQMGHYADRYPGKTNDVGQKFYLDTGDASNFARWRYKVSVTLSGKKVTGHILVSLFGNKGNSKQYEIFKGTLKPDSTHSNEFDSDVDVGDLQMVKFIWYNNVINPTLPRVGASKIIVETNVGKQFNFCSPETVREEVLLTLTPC", "conditions": "application of Orlistat; cited from earlier work"}}}
{"compound": "protamine", "values": [{"measurement": "triglyceride-reducing effect (in words)", "setting": "[1]; rats, lipid stress test with Triton WR-1339, postprandial plasma triglyceride rise (FIG. 1)", "value": "no triglyceride-reducing effect was found"}, {"measurement": "triglyceride-reducing (literature)", "setting": "triglyceride", "value": "triglyceride reducing"}]}
{"compound": "CCCCCCCCCCC[C@@H](C[C@@H]1OC(=O)[C@H]1CCCCCC)OC(=O)[C@H](CC(C)C)NC=O", "note": "[Orlistat, Tetrahydrolipstatin]", "values": [{"measurement": "triglyceride values as a function of the time after food intake (in words)", "setting": "[1]; rat plasma after lipid stress test, experimental period of four hours (FIG. 2)", "value": "the lowest"}, {"measurement": "undesired side effects", "setting": "pancreatic lipase", "value": "oily or fatty stools"}]}
{"compound": "VVYP (UniProt P02070 32-35, looked up, fragment) [fragment 32-35 of the β-chain of bovine haemoglobin]", "values": [{"measurement": "triglyceride-reducing (literature)", "setting": "triglyceride", "value": "triglyceride-reducing"}]}
